Test results published in patent US9402827B2, “Treatment of gout” (ARDEA BIOSCIENCES, INC., priority 2010, dated 2016).
Several values for one entry are separate records, joined by “and”; a condition that tells them apart may be missing. Identical values can stand only once.

Tests used:
IL-1β = assay: In vitro primary human monocyte assay, IL-1β; type: cell-based; conditions: primary human monocytes, FIG. 4A
Description: Blood (50-60 ml) was collected in Heparin vaccutainers (BD vaccutainer, Cat No-367874, Sodium Heparin, 10 ml tube; each holding ˜8-10 ml blood), which was immediately mixed to prevent coagulation. Accuspin-Histopaque 1077 (Sigma Aldrich cat no-A7054) was allowed to reach room temperature and diluted blood 1:1 in DPBS (Dulbecco's Phosphate-Buffered Saline (1×), liquid—Invitrogen, 14040-133), mixed by pipetting. The tubes were centrifuged (800 g; 30 seconds; room temp) to ensure all the Histopaque 1077 was below the high density polyethylene barrier.
Diluted blood (50 ml) was added to the upper chamber of each ACCUSPIN tube and centrifuged at room temp for 10 minutes at 1000×g or 15 minutes at 800×g, (brakes were off for this step; acc=1, dcl=1). PBMCs were collected from the PBS/Ficoll interphase with a transfer pipette and transferred to a new 50 mL tube. […]
Supernatant was decanted and 5 mL of RBC lysis solution added to the pellet and mixed well. […] The supernatant was discarded, resuspended in RPMI complete media, and the cells counted.
The hPBM cells isolated in step A were counted, centrifuged (300 g; 10 min) and the supernatant aspirated. […]
The centrifuged cells were then resuspended in 5 ml of MACS buffer and applied to the column. […] Cells were spun down (300 g, 5 min; supernatant discarded), resuspended in RPMI complete media and counted.

[1] = test system: monosodium urate (MSU) crystal injection-induced inflammation; assay: In vivo MSU-induced inflammation, rat air pouch study (Example 3B); set-up: species or system Sprague-Dawley rats; conditions: for Extravasation (optical absorbance at 620 nm), Av / Extravasation (optical absorbance at 620 nm), individual rats 1-10 / Exudate volume, Av / Exudate volume, individual rats 1-10 / Total white blood cell count, Av / Total white blood cell count, individual rats 1-10: 4 h after MSU
Description: (Air Pouch studies) were unpacked, placed in cages, a health inspection performed and a number assigned. […] Under anesthesia, 30 mL sterile air was injected subcutaneously on day 0 and day 3. Vehicle (water) or Lesinurad were administered orally. On the day of the experiment, rats were dosed with Vehicle, Lesinurad p.o., and/or colchicine s.c. (Sigma, Cat.#C9754, Lot.#188K1131). […] The pouch was gently massaged and the exudate was immediately removed from the air pouch. The exudate volume was measured and recorded for each animal. […] The supernatants were stored at −20° C. for cytokine analysis. […] Plasma extravasation was measured by optical absorbance at 620 nm for each exudate sample.

gout flares = assay: Phase II clinical trial in gout patients with hyperuricemia: time to first flare, flare rate (Example 5); type: in vivo, human; conditions: for 4 Wk % Flare (percent of patients experiencing at least one gout flare by week 4): based on ITT patient number, colchicine prophylaxis; for Time to First Flare (cumulative flare rate), Day 0 / Time to First Flare (cumulative flare rate), Day 7 / Time to First Flare (cumulative flare rate), Day 14 / Time to First Flare (cumulative flare rate), Day 21 / Time to First Flare (cumulative flare rate), Day 28: colchicine prophylaxis 0.5-0.6 mg QD
Description: A phase II clinical trial including 123 gout patients with hyperuricemia (serum uric acid ≧8 mg/dL) in 4 treatment arms was conducted. The trail lasted 8 weeks, comprising a 2 week run in period, 4 week treatment period and 2 week follow-up.
Patients were randomly assigned to arms 1, 2, 3 or 4 and orally administered Lesinurad according to Table 9 below and FIG. 8; all received colchicine prophylaxis (0.5-0.6 mg QD) for 2 weeks prior to Lesinurad dosing and throughout the 4 week treatment period.

[2] = Arm 2 (200 mg week 1, 400 mg weeks 2-4)
[3] = Arm 3 (200 mg week 1, 400 mg week 2, 600 mg weeks 3-4)

O=C(O)CSc1nnc(Br)n1-c1ccc(C2CC2)c2ccccc12 [Lesinurad, 2-(5-bromo-4-(4-cyclopropylnaphthalen-1-yl)-4H-1,2,4-triazol-3-ylthio)acetic acid]
IC50 (IL-1β; Monocyte): ~50 µM | IL-1β inhibition (IL-1β; 100 uM, 50 uM and 25 uM): dose dependent IL-1β inhibition | Extravasation (optical absorbance at 620 nm), Av ([1]; Lesinurad 0.1 mg/kg p.o.): 1.87 | Extravasation (optical absorbance at 620 nm), individual rats 1-10 ([1]; Lesinurad 0.1 mg/kg p.o.): 1.84 and 1.83 and 1.89 and 2.19 and 1.54 and 2.14 and 1.94 and 1.61 and 1.90 and 1.88 | Exudate volume, Av ([1]; Lesinurad 0.1 mg/kg p.o.): 9.18 mL | Exudate volume, individual rats 1-10 ([1]; Lesinurad 0.1 mg/kg p.o.): 8 mL (3×) and 9 mL and 11 mL and 10 mL and 9.6 mL and 9.2 mL and 7 mL and 12 mL | Total white blood cell count, Av ([1]; Lesinurad 0.1 mg/kg p.o.): 0.92 ×10^8 | Total white blood cell count, individual rats 1-10 ([1]; Lesinurad 0.1 mg/kg p.o.): 0.14 ×10^8 (2×) and 0.07 ×10^8 and 2.28 ×10^8 and 2.75 ×10^8 and 0.48 ×10^8 and 0.92 ×10^8 and 0.03 ×10^8 and 2.00 ×10^8 and 0.39 ×10^8 | Extravasation (optical absorbance at 620 nm), Av ([1]; Lesinurad 1 mg/kg p.o.): 1.87 | Extravasation (optical absorbance at 620 nm), individual rats 1-10 ([1]; Lesinurad 1 mg/kg p.o.): 1.79 (2×) and 2.01 and 2.27 and 1.36 and 1.94 and 1.67 and 1.98 and 2.04 and 1.83 | Exudate volume, Av ([1]; Lesinurad 1 mg/kg p.o.): 9.68 mL | Exudate volume, individual rats 1-10 ([1]; Lesinurad 1 mg/kg p.o.): 9.6 mL and 7 mL (2×) and 13 mL and 5 mL and 10 mL and 12 mL and 14 mL and 7.8 mL and 11.4 mL | Total white blood cell count, Av ([1]; Lesinurad 1 mg/kg p.o.): 0.41 ×10^8 | Total white blood cell count, individual rats 1-10 ([1]; Lesinurad 1 mg/kg p.o.): 0.19 ×10^8 and 0.44 ×10^8 and 0.68 ×10^8 and 0.01 ×10^8 and 0.48 ×10^8 and 0.54 ×10^8 and 0.26 ×10^8 and 1.17 ×10^8 and 0.34 ×10^8 and 0.02 ×10^8 | Extravasation, in words ([1]; Lesinurad 10 mg/kg): reduced extravasation | Extravasation (optical absorbance at 620 nm), Av ([1]; Lesinurad 10 mg/kg p.o.): 1.03 | Extravasation (optical absorbance at 620 nm), individual rats 1-10 ([1]; Lesinurad 10 mg/kg p.o.): 1.20 and 0.93 and 0.89 and 0.77 and 0.71 and 0.97 and 0.82 (2×) and 1.94 and 1.25 | Exudate volume, Av ([1]; Lesinurad 10 mg/kg p.o.): 8.29 mL | Exudate volume, individual rats 1-10 ([1]; Lesinurad 10 mg/kg p.o.): 7 mL and 10 mL and 6 mL (2×) and 8 mL and 9 mL (2×) and 12 mL and 8.4 mL and 7.5 mL | Total white blood cell count, Av ([1]; Lesinurad 10 mg/kg p.o.): 0.57 ×10^8 | Total white blood cell count, individual rats 1-10 ([1]; Lesinurad 10 mg/kg p.o.): 0.60 ×10^8 and 0.15 ×10^8 and 0.08 ×10^8 and 0.16 ×10^8 and 0.55 ×10^8 and 1.01 ×10^8 and 1.02 ×10^8 and 0.95 ×10^8 and 0.29 ×10^8 and 0.90 ×10^8 | Exudate volume, in words ([1]; Lesinurad 10 mg/kg/day): significantly reduced exudate volume | Number of white blood cells, in words ([1]; Lesinurad 0.1, 1 and 10 mg/kg/day): significantly lowered the number of white blood cells | Exudate volume, in words ([1]; Lesinurad 0.1 and 1 mg/kg/day): did not significantly reduce exudate volume | IL-4 levels in the exudates ([1]; cytokines measured in air pouch exudates): significantly reduced IL-4 levels | 4 Wk % Flare (percent of patients experiencing at least one gout flare by week 4) (gout flares; Arm 1 (200 mg weeks 1-4)): 10% | Time to First Flare (cumulative flare rate), Day 0 (gout flares; Arm 1 (200 mg weeks 1-4)): 27 | Time to First Flare (cumulative flare rate), Day 7 (gout flares; Arm 1 (200 mg weeks 1-4)): 27 | Time to First Flare (cumulative flare rate), Day 14 (gout flares; Arm 1 (200 mg weeks 1-4)): 26 | Time to First Flare (cumulative flare rate), Day 21 (gout flares; Arm 1 (200 mg weeks 1-4)): 25 | Time to First Flare (cumulative flare rate), Day 28 (gout flares; Arm 1 (200 mg weeks 1-4)): 25 | 4 Wk % Flare (percent of patients experiencing at least one gout flare by week 4) (gout flares; [2]): 12% | Time to First Flare (cumulative flare rate), Day 0 (gout flares; [2]): 31 | Time to First Flare (cumulative flare rate), Day 7 (gout flares; [2]): 31 | Time to First Flare (cumulative flare rate), Day 14 (gout flares; [2]): 30 | Time to First Flare (cumulative flare rate), Day 21 (gout flares; [2]): 28 | Time to First Flare (cumulative flare rate), Day 28 (gout flares; [2]): 26 | Time to First Flare (cumulative flare rate), Day 0 (gout flares; [3]): 33 | Time to First Flare (cumulative flare rate), Day 7 (gout flares; [3]): 31 | Time to First Flare (cumulative flare rate), Day 14 (gout flares; [3]): 31 | Time to First Flare (cumulative flare rate), Day 21 (gout flares; [3]): 29 | Time to First Flare (cumulative flare rate), Day 28 (gout flares; [3]): 29 | 4 Wk % Flare (percent of patients experiencing at least one gout flare by week 4) (gout flares; Arm 3 (200/400/600/600 mg)): 13%
